Experimental data as given in ChEMBL document CHEMBL1143880, “Targeting gastrin-releasing peptide receptors of prostate cancer cells for photodynamic therapy with a phthalocyanine-bombesin conjugate” (Bioorg Med Chem Lett, 2008).

Molecular target: Gastrin-releasing peptide receptor (Homo sapiens, UniProt P30550)
Experiment: Displacement of 125I[Tyr4]-bombesin from GRPR expressed in human PC3 cells
Type: cell-based, PC-3

Sequence of Gastrin-releasing peptide receptor (P30550 whole entry): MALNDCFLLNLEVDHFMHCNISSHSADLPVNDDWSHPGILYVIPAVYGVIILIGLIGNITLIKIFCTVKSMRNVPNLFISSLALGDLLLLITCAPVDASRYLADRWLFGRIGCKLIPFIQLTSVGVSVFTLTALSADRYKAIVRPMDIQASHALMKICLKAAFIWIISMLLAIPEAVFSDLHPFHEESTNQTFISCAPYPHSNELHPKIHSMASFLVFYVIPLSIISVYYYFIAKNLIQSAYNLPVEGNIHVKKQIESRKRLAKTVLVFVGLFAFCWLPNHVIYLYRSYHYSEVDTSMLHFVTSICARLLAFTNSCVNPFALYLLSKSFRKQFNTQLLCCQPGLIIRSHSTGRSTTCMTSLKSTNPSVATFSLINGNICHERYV

`CSCC[C@H](NC(=O)[C@H](CC(C)C)NC(=O)[C@H](Cc1cnc[nH]1)NC(=O)CNC(=O)[C@@H](NC(=O)[C@H](C)NC(=O)[C@H](Cc1c[nH]c2ccccc12)NC(=O)[C@H](CCC(N)=O)NC(=O)CCCCCCCNC(=O)CCCCCN)C(C)C)C(N)=O` gave an EC50 of 0.373 nM.
